Like-named read-outs stand apart in the source and are kept apart here.
What was measured:
[1] = test system: LS2 liposarcoma cell line; experiment: CellTiter-Glo viability, GR50, 72h; format: cell-based, human; settings: Homo sapiens; LS2, 72h; read-out: Half maximum effective concentration corrected for cell growth (GR50)
Description: Cell viability was measured using the CellTiter-Glo Luminescent Cell Viability Assay (Promega, Wisconsin, United States). For each experiment the same cell numbers were seeded as for the proliferation experiments. Seven drug concentrations were used, starting from 100μM with 10-fold dilutions and also a vehicle control appropriate for each drug (DMSO or ethanol). After 72h of drug or vehicle control treatment levels of ATP were measured with CellTiter-Glo. The data from six to nine biological replicates, each with three technical replicates were collected. A nonlinear regression model with different four-parameter log-logistic function was used for modelling of the drug dose-response using ‘GRmetrics’ R package version 1.8.1 [26]. The calculated GR50 metric is equivalent to the IC50 metric but takes into account the growth rate of cells. Therefore, it estimates better the effect of the compound on cell viability and allows for comparison between different cell lines with different growth rates.

[2] = test system: liposarcoma cell lines; experiment: IncuCyte cell proliferation assay (growth reducing/arresting concentration); format: cell-based, human; settings: complete growth arrest between 96 and 120h
Description: The cellular proliferation rate was measured using the IncuCyte ZOOM live-cell imaging system (Essen Bioscience, Birmingham, UK) with the corresponding software application (version 2013BRev1). First the growth rate for each cell line was established to estimate the seeding numbers of cells corresponding to 15-30% of confluence at the start of the experiment and maximum 70% after 72h. The drug treatment was initiated approximately 18h after seeding. The proliferation rate was measured as cell confluence over time through the acquisition of photographs under phase contrast every third hour for the entire duration of the drug treatment. During the drug treatment, media were not changed, and cells were not split. The growth reducing drug concentration was defined as lowest drug concentration leading to significant decrease of cellular growth between 40 and 72h after start of treatment. To determine that concentration, plots were generated using IncuCyte software and differences in growth between 40 and 72h were calculated using least-square means with the '[…] package version 1.4.3 [25]. Growth arresting concentrations were defined as minimal drug concentration under which cell confluence between 96 and 120h increases by less than 3%. Though growth arrest occurred much earlier, these time points ensured that the growth arrest is a stable phenomenon. These growth arresting concentrations were used for drug withdrawal, apoptosis and cell cycle experiments. All the data were verified with the plots. The presented values correspond to median values from two ([…], all compounds) to five (all cell lines, triptolide) biological replicates.

[3] = test system: cancer cells isolated from primary liposarcoma tumors; experiment: Ex vivo cultures of patient-derived tumor cells, ATP viability 72h; format: cell-based, human; settings: 1 nM to 10 μM, patients 1-3
Description: (§1) 349 compounds from anti-cancer Selleck Chemical library were pre-aliquoted at five concentrations, increasing in 10-fold steps from 1 nM to 10 μM, in 384-well plates using an Echo Liquid Handler. Each plate also contained positive (benzethonium chloride, BzCl) and negative (DMSO only) controls. Additional drugs were added manually to the same plates at the same concentration range. Cells were seeded directly into the plates containing the drugs. After 72h viability was assessed through levels of ATP, with Cell Titer Glow assay (Promega, Wisconsin, United States) and luminescence quantified using a […]. Data from drug screens were analyzed with R version 3.4.0 (R_Core_Team, 2017) normalized to median positive (BzCl) and median negative (DMSO) controls using formula: (drug-BzCl)/(DMSO–BzCl), with total viability calculated as the area under the curve over all five drug concentrations, adjusted using qualitatively constrained quantile smoothing splines, R package ‘cobs’ version 1.3–3 [22]. The raw values of positive (BzCl) and median negative (DMSO) controls on each assay plate were aggregated and used to calculate z’-factors, as a measure of assay performance and data quality, with a z’-factor > 0.5 representing acceptable data. For two cases where the z’-factor was below 0.5, strictly standardized mean difference (SSMD) was additionally calculated, giving the population value (β) of SSMD -4 and -5, respectively, indicating good quality. Data visualization was done in R using ‘ComplexHeatmaps’ package version 1.20.0 [24]. The same assay was also used when assessing viability of non-tumor cells and tumor explants.
Explants of tumors from patients with liposarcoma were made using Tumor Dissociation Kit and gentleMACS Dissociator (both Miltenyi Biotec, Germany) according to the manufacturer’s instructions. […]
Next, we tested the selected candidate drugs on cancer cells isolated from primary liposarcoma tumors that were available during the study (Fig 5, bottom panel). […] Cell viability was assessed by measuring ATP after 72h. […]

[4] = cited from earlier work
[5] = test system: normal cells (blood, bone marrow from healthy donors, iMSC#3); experiment: Toxicity towards normal cells ex vivo, ATP viability 72h; format: cell-based, human; settings: 1 nM to 10 μM
Description: as §1, with “The raw values of positive (BzCl) and median negative (DMSO) controls on each assay plate were aggregated and used to calculate z’-factors, as a measure of assay performance and data quality, with a z’-factor > 0.5 representing acceptable data.” left out, “Data visualization was done in R using ‘ComplexHeatmaps’ package version 1.20.0 [24]. The same assay was also used when assessing viability of non-tumor cells and tumor explants.” left out

[6] = test system: advanced solid malignancies or lymphoma; settings: cited from earlier work
[7] = test system: all cancer cell lines (NCI-60); set-up: method as in NCI-60 project; settings: ref NCI-60 project; cited from earlier work

IC50 [1] [nM]	Structure (SMILES)	concentration arresting the majority of the cell lines [2] [nM]	efficacy against primary tumor cells from liposarcoma patients [3]	mean steady state serum concentration (Css) ([4]; 24 patients with advanced solid malignancies) [nM]	toxicity towards normal cells compared with liposarcoma cell lines [5]	patients with partial response or stable disease ([6]; heavily pretreated patients with solid tumors) [%]	Cmax ([4]; dosing schedule recommended for phase II, patients with solid tumors) [nM]	IC50 [7] [nM]	Cmax ([4]; read-out: maximum therapeutic plasma concentration (Cmax), in humans) [nM]	patients with complete or partial responses ([6]; phase I, advanced solid malignancies or lymphoma) [%]	Css ([4]; phase I, maximum tolerated dose) [nM]	Cmax ([4]; read-out: clinically relevant concentration (Cmax or Css), values show Cmax or Css (italics), patients) [nM]
8	O=C(/C=C/c1cccnc1)NCCCCC1CCN(C(=O)c2ccccc2)CC1 [APO866]	10	most varied	14								
94	Cn1cc(CNCC2CCN(c3ncc(C(=O)NO)cn3)CC2)c2ccccc21 [JNJ-26481585]				more toxic to bone marrow cells in vitro than to liposarcoma cell lines	10	1.5 to 14					
358	COCCn1c2c([n+](Cc3cnccn3)c1C)C(=O)c1ccccc1C2=O [YM155]		good response							14	17	17

Structure (SMILES)	IC50 [1] [nM]	concentration arresting the majority of the cell lines [2] [nM]	efficacy against primary tumor cells from liposarcoma patients [3]	mean steady state serum concentration (Css) ([4]; 24 patients with advanced solid malignancies) [nM]	toxicity towards normal cells compared with liposarcoma cell lines [5]	patients with partial response or stable disease ([6]; heavily pretreated patients with solid tumors) [%]	Cmax ([4]; dosing schedule recommended for phase II, patients with solid tumors) [nM]	IC50 [7] [nM]	Cmax ([4]; read-out: maximum therapeutic plasma concentration (Cmax), in humans) [nM]	patients with complete or partial responses ([6]; phase I, advanced solid malignancies or lymphoma) [%]	Css ([4]; phase I, maximum tolerated dose) [nM]	Cmax ([4]; read-out: clinically relevant concentration (Cmax or Css), values show Cmax or Css (italics), patients) [nM]
CC(C)[C@]12O[C@H]1[C@@H]1O[C@]13[C@]1(O[C@H]1C[C@H]1C4=C(CC[C@@]13C)C(=O)OC4)[C@@H]2O [Triptolide]	6	10	most efficient for all the samples		more toxic to bone marrow cells in vitro than to liposarcoma cell lines			12	150 to 400			

From PMC7946228, “Discovery of novel candidates for anti-liposarcoma therapies by medium-scale high-throughput drug screening” (PLoS ONE, 2021)
